According to PubChem BioAssay (NCI):
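Each compound was tested at five concentrations against cells in 96-well plates for 48 hours. Abbreviation: GI50, concentration required for 50% inhibition of growth. TGI: concentration producing complete growth inhibition.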

Assays:
Assay in all cases: DTP human tumour cell line panel, 48 h
HL-60(TB) leukemia = tested on: HL-60(TB) leukemia
KM12 colon = tested on: KM12 colon
HCT-116 colon = tested on: HCT-116 colon
HOP-62 NSCLC = tested on: HOP-62 NSCLC
SF-539 CNS = tested on: SF-539 CNS
HCT-15 colon = tested on: HCT-15 colon
HOP-92 NSCLC = tested on: HOP-92 NSCLC
OVCAR-3 ovarian = tested on: OVCAR-3 ovarian
K-562 leukemia = tested on: K-562 leukemia
NCI/ADR-RES ovarian = tested on: NCI/ADR-RES ovarian

With `Brc1cccc(C2SCc3nc4ccccc4n32)c1` (stereo not given) the TGI (HL-60(TB) leukemia) was 34.9 µM, the TGI (KM12 colon) was 42.7 µM and the TGI (HCT-116 colon) was 29.4 µM. For the same molecule, the TGI (HOP-62 NSCLC) was 40.7 µM, the TGI (SF-539 CNS) was 40.9 µM and the TGI (HCT-15 colon) was 35.9 µM. It also gave a TGI (HOP-92 NSCLC) of 35.6 µM, a TGI (OVCAR-3 ovarian) of 32.6 µM and a TGI (K-562 leukemia) greater than 100 µM.

`CCOC(=O)c1oc2ccc(OC)c3c2c1CCC3` gave a TGI (HL-60(TB) leukemia) greater than 100 µM, a TGI (KM12 colon) greater than 100 µM and a TGI (HOP-62 NSCLC) greater than 100 µM. It also gave a TGI (SF-539 CNS) greater than 100 µM, a TGI (HCT-15 colon) greater than 100 µM and a TGI (HOP-92 NSCLC) greater than 100 µM. The TGI (OVCAR-3 ovarian) was greater than 100 µM and the TGI (K-562 leukemia) was greater than 100 µM.

`O=C1OC(CCCl)(c2ccccc2)CC1CN1CCOCC1` (stereo not given) showed a TGI (HL-60(TB) leukemia) of 26.5 µM, a TGI (KM12 colon) of 47.7 µM and a TGI (HOP-62 NSCLC) greater than 100 µM. The TGI (SF-539 CNS) was 70.1 µM, the TGI (HCT-15 colon) was 55.5 µM and the TGI (HOP-92 NSCLC) was 31.6 µM. It also gave a TGI (OVCAR-3 ovarian) of 32.1 µM and a TGI (K-562 leukemia) of 61.3 µM.

With `O=S(=O)(c1ccccc1)C(CN1CCCCC1)S(=O)(=O)c1ccccc1` the TGI (HL-60(TB) leukemia) was greater than 100 µM, the TGI (KM12 colon) was greater than 100 µM and the TGI (HOP-62 NSCLC) was greater than 100 µM. The TGI (SF-539 CNS) was greater than 100 µM, the TGI (HCT-15 colon) was greater than 100 µM and the TGI (HOP-92 NSCLC) was greater than 100 µM. It also gave a TGI (OVCAR-3 ovarian) greater than 100 µM and a TGI (K-562 leukemia) greater than 100 µM.

`CCCCCCCCCCCC(=O)OCCOCCOCCOCCOCCOCc1ccc(OC)cc1` showed a TGI (HL-60(TB) leukemia) of 51.7 µM, a TGI (KM12 colon) greater than 100 µM and a TGI (HCT-116 colon) greater than 100 µM. It also gave a TGI (HOP-62 NSCLC) greater than 100 µM, a TGI (HCT-15 colon) greater than 100 µM and a TGI (HOP-92 NSCLC) greater than 100 µM. The TGI (OVCAR-3 ovarian) was greater than 100 µM and the TGI (K-562 leukemia) was greater than 100 µM.

With `C[Si](C)(C)OC1(C#N)C2C3CC4C2C(=O)C2C4C3C21` (stereo not given) the TGI (HL-60(TB) leukemia) was greater than 100 µM, the TGI (KM12 colon) was greater than 100 µM and the TGI (HCT-116 colon) was greater than 100 µM. The TGI (HOP-62 NSCLC) was greater than 100 µM, the TGI (SF-539 CNS) was greater than 100 µM and the TGI (HCT-15 colon) was greater than 100 µM. The TGI (OVCAR-3 ovarian) was greater than 100 µM and the TGI (K-562 leukemia) was greater than 100 µM.

With `Cn1cnc2nc(Cl)nc(NC(C)(C)C(C)(C)O)c21` the TGI (HL-60(TB) leukemia) was greater than 100 µM, the TGI (KM12 colon) was greater than 100 µM and the TGI (HCT-116 colon) was greater than 100 µM. For the same molecule, the TGI (HOP-62 NSCLC) was greater than 100 µM, the TGI (SF-539 CNS) was greater than 100 µM and the TGI (HCT-15 colon) was greater than 100 µM. It also gave a TGI (HOP-92 NSCLC) greater than 100 µM, a TGI (OVCAR-3 ovarian) greater than 100 µM and a TGI (K-562 leukemia) greater than 100 µM.

In the case of `COc1cc2c(cc1OC(=O)CC(C)O)C1C(OC2=O)C(OC(C)=O)C=C2CCN(C)[C@H]21` (stereo not given in full), the TGI (KM12 colon) was greater than 100 µM, the TGI (HCT-116 colon) was greater than 100 µM and the TGI (HOP-62 NSCLC) was 55.7 µM. For the same molecule, the TGI (SF-539 CNS) was 52.8 µM, the TGI (HOP-92 NSCLC) was 44.5 µM and the TGI (OVCAR-3 ovarian) was greater than 100 µM. For the same molecule, the TGI (K-562 leukemia) was greater than 100 µM.

`CCOc1ccc2nc(NC(=O)c3c/c(=N\NC(=O)C[N+](C)(C)C)c4ccc(O)cc4o3)sc2c1` showed a TGI (HL-60(TB) leukemia) of 3.83 µM, a TGI (KM12 colon) of 19.2 µM and a TGI (HCT-116 colon) greater than 29.8 µM. It also gave a TGI (SF-539 CNS) of 11 µM, a TGI (HCT-15 colon) of 20 µM and a TGI (HOP-92 NSCLC) of 6.99 µM. The TGI (OVCAR-3 ovarian) was 0.402 µM and the TGI (K-562 leukemia) was 6.08 µM.

Work on `CCCCCCc1cc(C(=O)Nc2cccc(C(F)(F)F)c2)nc(N)n1` yielded a TGI (HL-60(TB) leukemia) greater than 100 µM, a TGI (KM12 colon) greater than 100 µM and a TGI (HCT-116 colon) greater than 100 µM. It also gave a TGI (HOP-62 NSCLC) greater than 100 µM, a TGI (SF-539 CNS) greater than 100 µM and a TGI (HCT-15 colon) greater than 100 µM. For the same molecule, the TGI (HOP-92 NSCLC) was greater than 100 µM, the TGI (OVCAR-3 ovarian) was greater than 100 µM and the TGI (K-562 leukemia) was greater than 100 µM.

For `C/C(=N\Nc1ccc2ccccc2n1)c1ccccn1`, the GI50 (KM12 colon) was 0.115 µM, the TGI (KM12 colon) was 9.12 µM and the GI50 (HCT-116 colon) was less than 0.0472 µM. The TGI (HCT-116 colon) was 3.03 µM, the GI50 (HOP-62 NSCLC) was 0.09 µM and the TGI (HOP-62 NSCLC) was 11 µM. It also gave a GI50 (SF-539 CNS) of 0.0768 µM, a TGI (SF-539 CNS) of 0.487 µM and a TGI (HCT-15 colon) of 5.72 µM. It also gave a GI50 (NCI/ADR-RES ovarian) of 0.0653 µM, a TGI (NCI/ADR-RES ovarian) of 7.19 µM and a GI50 (OVCAR-3 ovarian) of less than 0.0192 µM. It also gave a TGI (OVCAR-3 ovarian) of 4.24 µM and a TGI (K-562 leukemia) of 1.68 µM.

Work on `O=C(NN1C(=O)CSC12CCCCC2)c1[nH]c2ccc(F)cc2c1-c1ccccc1` yielded a GI50 (KM12 colon) of 17.1 µM, a TGI (KM12 colon) of 32.6 µM and a GI50 (HCT-116 colon) of 16.7 µM. It also gave a TGI (HCT-116 colon) of 31.5 µM, a GI50 (HOP-62 NSCLC) of 19.2 µM and a TGI (HOP-62 NSCLC) of 41.2 µM. For the same molecule, the GI50 (SF-539 CNS) was 21.8 µM, the TGI (SF-539 CNS) was 37.2 µM and the GI50 (HCT-15 colon) was 32.3 µM. The TGI (HCT-15 colon) was greater than 100 µM, the GI50 (HOP-92 NSCLC) was 17.8 µM and the TGI (HOP-92 NSCLC) was 40.9 µM. For the same molecule, the GI50 (OVCAR-3 ovarian) was 18.8 µM, the TGI (OVCAR-3 ovarian) was 32.9 µM and the GI50 (K-562 leukemia) was 21.3 µM. The TGI (K-562 leukemia) was 52.7 µM.

`c1ccc2c(C3NCCc4[nH]cnc43)cccc2c1` (stereo not given) gave a TGI (KM12 colon) greater than 100 µM, a TGI (HCT-116 colon) greater than 100 µM and a TGI (HOP-62 NSCLC) greater than 100 µM. For the same molecule, the TGI (SF-539 CNS) was greater than 100 µM, the TGI (HCT-15 colon) was greater than 100 µM and the TGI (HOP-92 NSCLC) was greater than 100 µM. It also gave a TGI (OVCAR-3 ovarian) greater than 100 µM and a TGI (K-562 leukemia) greater than 100 µM.

`COc1ccc(N=c2ssc3c(=S)ssc23)cc1` was tested, and the TGI (HL-60(TB) leukemia) was 28.2 µM, the TGI (KM12 colon) was greater than 100 µM and the TGI (HCT-116 colon) was greater than 100 µM. For the same molecule, the TGI (HOP-62 NSCLC) was greater than 100 µM, the TGI (SF-539 CNS) was 96.2 µM and the TGI (HCT-15 colon) was 52.5 µM. It also gave a TGI (HOP-92 NSCLC) of 70.3 µM, a TGI (OVCAR-3 ovarian) of 61.7 µM and a TGI (K-562 leukemia) of 22.5 µM.

`CCN(C(=O)N1CCN(c2cc3c(cc2F)c(=O)c(C(=O)O)cn3C2CC2)CC1)c1nc(-c2ccc(C)cc2)cs1` gave a GI50 (KM12 colon) of 0.41 µM, a TGI (KM12 colon) greater than 100 µM and a GI50 (HCT-116 colon) of 1.04 µM. It also gave a TGI (HCT-116 colon) greater than 40.1 µM, a GI50 (HOP-62 NSCLC) of 1.41 µM and a TGI (HOP-62 NSCLC) greater than 100 µM. The GI50 (SF-539 CNS) was 0.356 µM, the TGI (SF-539 CNS) was 2.65 µM and the GI50 (HCT-15 colon) was 0.341 µM. The TGI (HCT-15 colon) was greater than 100 µM, the GI50 (HOP-92 NSCLC) was 0.708 µM and the TGI (HOP-92 NSCLC) was 2.8 µM. For the same molecule, the GI50 (OVCAR-3 ovarian) was 0.368 µM, the TGI (OVCAR-3 ovarian) was 2.47 µM and the GI50 (K-562 leukemia) was 0.431 µM. It also gave a TGI (K-562 leukemia) greater than 100 µM.

In the case of `CC(=O)OC1CCn2nnc(CO[Si](C)(C)C(C)(C)C)c21` (stereo not given), the TGI (KM12 colon) was greater than 100 µM, the TGI (HCT-116 colon) was greater than 100 µM and the TGI (SF-539 CNS) was greater than 100 µM. The TGI (HCT-15 colon) was greater than 100 µM, the TGI (OVCAR-3 ovarian) was greater than 100 µM and the TGI (K-562 leukemia) was greater than 100 µM.

In the case of `N#CC(C(=O)CCC(=O)Nc1cccc(Cl)c1)c1ccccc1` (stereo not given), the TGI (HL-60(TB) leukemia) was greater than 100 µM, the TGI (KM12 colon) was greater than 100 µM and the TGI (HCT-116 colon) was greater than 100 µM. The TGI (HOP-62 NSCLC) was greater than 100 µM, the TGI (SF-539 CNS) was greater than 100 µM and the TGI (HCT-15 colon) was greater than 100 µM. For the same molecule, the TGI (HOP-92 NSCLC) was greater than 100 µM, the TGI (OVCAR-3 ovarian) was greater than 100 µM and the TGI (K-562 leukemia) was greater than 100 µM.
